Source: patent US9856259B2, “Heterocyclic compounds and uses thereof” (Plexxikon Inc., priority 2014, dated 2018)

What was measured:
[1] = target: T1, BRD4-BD12 (Homo sapiens, UniProt O60885); test: Alphascreen binding assay, BRD4(1 2) H4; conditions: BRD4 dual bromodomains with acetylated Histone 4 peptide, read-out: Biochemical activity (IC50 μM) BRD4(1 2) H4
T1 construct: dual bromodomains (BRD4-BD12 (1-477), BRD4-BD12 (1-472)); six-His tag (N); made in house; host or cells: E. coli BL21-CodonPlus (DE3)
Outline: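 N-His-tagged human BRD4 tandem bromodomains (1-477 or 1-472, E. coli-expressed) and biotinylated tetra-acetylated histone H4 1-21 peptide, preincubated 1 h at room temperature with compound in HEPES pH 7.5/NaCl/BSA/Triton/DTT. AlphaScreen nickel-chelate/streptavidin beads added (7.5 μg/mL), read after 30 min. pIC50 from four-parameter fit of control-normalized data.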

[2] = test system: cancer cell lines / MV-4-11 Myc reporter cell line; test: Bromodomain cell assays of Example 8 (at least one of them); assay type: cell-based; conditions: Homo sapiens, MV4-11; at least one of the bromodomain cell assays described in Example 8
Outline: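 Antiproliferation: 3000 cells/well, 8-point 1:3 titration from 10 µM final, 0.2% DMSO, 72 h, CellTiter Glo luminescence. Myc reporter: MV-4-11 with E-box firefly luciferase, 25,000 cells, same titration, 24 h; One-Glo luminescence with CellTiter-Fluo viability; 10 µM JQ1 as low control. pIC50 from four-parameter fit.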

[3] = test system: MV-4-11; test: Oncology cell growth assay, MV-4-11 3 d growth; assay type: cell-based; conditions: Homo sapiens, MV4-11; MV-4-11 cells, 72 hours, CellTiter Glo; read-out: Cell activity (IC50 μM) MV-4-11 3 d-Growtb
Outline: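 MV-4-11 AML cells (MLL-AF4) seeded 3000/well, then exposed to 8-point 1:3 compound dilutions up to 10 μM final, 0.2% DMSO, for 72 h. Growth read by CellTiter Glo luminescence, normalised to DMSO controls; pIC50 from four-parameter fit.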

[4] = test system: cancer cells such leukemia and lymphoma, multiple myeloma cells, NUT midline carcinoma and glioblastoma cells; conditions: literature; cited from earlier work

Row | SMILES | IC50 [1] [µM] | IC50 [2] [nM] | IC50 [3] [µM] | activity in variety of cancer cells [4]
1 | COC(=O)C1(c2ccc(-c3cn([C@@H](C)c4ccccn4)c4nc(-c5c(C)noc5C)cnc34)cc2)CC1 [Compound P-2053, methyl 1-[4-[3-(3,5-dimethylisoxazol-4-yl)-5-[(1S)-1-(2-pyridyl)ethyl]pyrrolo[2,3-b]pyrazin-7-yl]phenyl]cyclopropanecarboxylate] | ≤ 1 | < 10000 | ≤ 1 | 
2 | [2H]C([2H])(C1CCC(F)(F)CC1)n1ccc2ncc(-c3[nH]nnc3C)nc21 [Compound P-2041, 5-[dideuterio-(4,4-difluorocyclohexyl)methyl]-3-(4-methyl-1H-triazol-5-yl)pyrrolo[2,3-b]pyrazine] | 1 to 10 | < 10000 | 1 to 10 | 
3 | Cc1noc(C)c1-c1cnc2c(-c3ccc(C(=O)O)cc3)cn([C@@H](C)c3ccccn3)c2n1 [Compound P-2050, 4-[3-(3,5-dimethylisoxazol-4-yl)-5-[(1S)-1-(2-pyridyl)ethyl]pyrrolo[2,3-b]pyrazin-7-yl]benzoic acid] | ≤ 1 | < 10000 | ≤ 1 | 
4 | Cc1noc(C)c1-c1ccc2c(-c3cnn(CC(F)(F)F)c3)nn(C(c3ccccc3)c3ccccn3)c2c1 (stereo not shown) [Compound P-2005, 3,5-dimethyl-4-[1-[phenyl(2-pyridyl)methyl]-3-[1-(2,2,2-trifluoroethyl)pyrazol-4-yl]indazol-6-yl]isoxazole] | ≤ 1 | < 10000 | ≤ 1 | 
5 | COC(=O)Cc1ccc(-c2cn([C@@H](C)c3ccccn3)c3nc(-c4c(C)noc4C)cnc23)cc1 [Compound P-2051, methyl 2-[4-[3-(3,5-dimethylisoxazol-4-yl)-5-[(1S)-1-(2-pyridyl)ethyl]pyrrolo[2,3-b]pyrazin-7-yl]phenyl]acetate] | ≤ 1 | < 10000 | ≤ 1 | 
6 | Cc1nnn(C)c1-c1cnc2c(-c3cnn(C)c3)nn(CC3CCC(F)(F)CC3)c2c1 [Compound P-2090, 1-[(4,4-difluorocyclohexyl)methyl]-6-(3,5-dimethyltriazol-4-yl)-3-(1-methylpyrazol-4-yl)pyrazolo[4,3-b]pyridine] | ≤ 1 | < 10000 | ≤ 1 | 
7 | Cc1noc(C)c1-c1cnc2cnn(CC3CCC(F)(F)CC3)c2c1 [Compound P-2079, 4-[1-[(4,4-difluorocyclohexyl)methyl]pyrazolo[4,3-b]pyridin-6-yl]-3,5-dimethyl-isoxazole] | ≤ 1 | < 10000 | ≤ 1 | 
8 | Cc1noc(C)c1-c1ccc2c(-c3cnn(C)c3)nn(C(c3ccccc3)c3ccccn3)c2c1 (stereo not shown) [Compound P-2004, 3,5-dimethyl-4-[3-(1-methylpyrazol-4-yl)-1-[phenyl(2-pyridyl)methyl]indazol-6-yl]isoxazole] | ≤ 1 | < 10000 | ≤ 1 | 
9 | [2H]C([2H])(C1CCC(F)(F)CC1)n1cc(I)c2ncc(-c3c(C)noc3C)nc21 [Compound P-2039, 4-[5-[dideuterio-(4,4-difluorocyclohexyl)methyl]-7-iodo-pyrrolo[2,3-b]pyrazin-3-yl]-3,5-dimethyl-isoxazole] | ≤ 1 | < 10000 | ≤ 1 | 
10 | Cc1noc(C)c1-c1ccc2c(-c3ccc(C(=O)O)cc3)nn(C(c3ccccc3)c3ccccn3)c2c1 (stereo not shown) [Compound P-2007, 4-[6-(3,5-dimethylisoxazol-4-yl)-1-[phenyl(2-pyridyl)methyl]indazol-3-yl]benzoic acid] | ≤ 1 | < 10000 | ≤ 1 | 
11 | [2H]C([2H])(C1CCC(F)(F)CC1)n1nc(-c2cnn(CC(F)(F)F)c2)c2ncc(-c3c(C)noc3C)cc21 [Compound P-2085, 4-[1-[dideuterio-(4,4-difluorocyclohexyl)methyl]-3-[1-(2,2,2-trifluoroethyl)pyrazol-4-yl]pyrazolo[4,3-b]pyridin-6-yl]-3,5-dimethyl-isoxazole] | ≤ 1 | < 10000 | ≤ 1 | 
12 | Cc1noc(C)c1-c1cnc2[nH]cc(CC3CCC(F)(F)CC3)c2n1 [Compound P-2077, 4-[7-[(4,4-difluorocyclohexyl)methyl]-5H-pyrrolo[2,3-b]pyrazin-2-yl]-3,5-dimethyl-isoxazole] | 1 to 10 | < 10000 | 1 to 10 | 
13 | [2H]C([2H])(C1CCC(F)(F)CC1)n1ccc2ncc(-c3nn(C(F)F)nc3C)nc21 [Compound P-2042] | 1 to 10 | < 10000 | 10 to 200 | 
14 | COC(=O)c1ccc(-c2cn([C@@H](C)c3ccccn3)c3nc(-c4c(C)noc4C)cnc23)cc1 [Compound P-2049, methyl 4-[3-(3,5-dimethylisoxazol-4-yl)-5-[(1S)-1-(2-pyridyl)ethyl]pyrrolo[2,3-b]pyrazin-7-yl]benzoate] | ≤ 1 | < 10000 | ≤ 1 | 
15 | Cc1noc(C)c1-c1cnc2c(-c3cnn(C(F)F)c3)nn(CC3CCC(F)(F)CC3)c2c1 [Compound P-2082, 4-[1-[(4,4-difluorocyclohexyl)methyl]-3-[1-(difluoromethyl)pyrazol-4-yl]pyrazolo[4,3-b]pyridin-6-yl]-3,5-dimethyl-isoxazole] | ≤ 1 | < 10000 | ≤ 1 | 
16 | Cc1noc(C)c1-c1cnc2c(-c3cnn(CC(F)(F)F)c3)nn(CC3CCC(F)(F)CC3)c2c1 [Compound P-2083, 4-[1-[(4,4-difluorocyclohexyl)methyl]-3-[1-(2,2,2-trifluoroethyl)pyrazol-4-yl]pyrazolo[4,3-b]pyridin-6-yl]-3,5-dimethyl-isoxazole] | ≤ 1 | < 10000 | ≤ 1 | 
17 | [2H]C([2H])(C1CCC(F)(F)CC1)n1cc(-c2ccc(C(=O)O)cc2)c2ncc(-c3c(C)noc3C)nc21 [Compound P-2044, 4-[5-[dideuterio-(4,4-difluorocyclohexyl)methyl]-3-(3,5-dimethylisoxazol-4-yl)pyrrolo[2,3-b]pyrazin-7-yl]benzoic acid] | ≤ 1 | < 10000 | ≤ 1 | 
18 | Cc1noc(C)c1-c1cnc2c(-c3ccc(C4(C(=O)O)CC4)cc3)cn([C@@H](C)c3ccccn3)c2n1 [Compound P-2054, 1-[4-[3-(3,5-dimethylisoxazol-4-yl)-5-[(1S)-1-(2-pyridyl)ethyl]pyrrolo[2,3-b]pyrazin-7-yl]phenyl]cyclopropanecarboxylic acid] | ≤ 1 | < 10000 | ≤ 1 | 
19 | Cc1noc(C)c1-c1ccc2c(-c3ccc(CC(=O)O)cc3)nn([C@@H](C)c3ccccn3)c2c1 [Compound P-2014, 2-[4-[6-(3,5-dimethylisoxazol-4-yl)-1-[(1S)-1-(2-pyridyl)ethyl]indazol-3-yl]phenyl]acetic acid] | ≤ 1 | < 10000 | ≤ 1 | 
20 | Cc1noc(C)c1-c1ccc2c(-c3ccc(C(=O)O)cc3)nn([C@@H](C)c3ccccn3)c2c1 [Compound P-2013, 4-[6-(3,5-dimethylisoxazol-4-yl)-1-[(1S)-1-(2-pyridyl)ethyl]indazol-3-yl]benzoic acid] | ≤ 1 | < 10000 | ≤ 1 | 
21 | Cc1noc(C)c1-c1cnc2c(I)nn(CC3CCC(F)(F)CC3)c2c1 [Compound P-2080, 4-[1-[(4,4-difluorocyclohexyl)methyl]-3-iodo-pyrazolo[4,3-b]pyridin-6-yl]-3,5-dimethyl-isoxazole] | ≤ 1 | < 10000 | ≤ 1 | 
22 | Cc1noc(C)c1-c1cnc2c(-c3cnn(C)c3)nn(CC3CCC(F)(F)CC3)c2c1 [Compound P-2081, 4-[1-[(4,4-difluorocyclohexyl)methyl]-3-(1-methylpyrazol-4-yl)pyrazolo[4,3-b]pyridin-6-yl]-3,5-dimethyl-isoxazole] | ≤ 1 | < 10000 | ≤ 1 | 
23 | Cc1sc2c(c1C)C(c1ccc(Cl)cc1)=N[C@@H](CC(=O)OC(C)(C)C)c1nnc(C)n1-2 [JQ1] |  |  |  | have shown activity
24 | COC(=O)c1ccc(-c2cn(C(c3ccccc3)c3ccccn3)c3nc(-c4c(C)noc4C)cnc23)cc1 (stereo not shown) [Compound P-2045, methyl 4-[3-(3,5-dimethylisoxazol-4-yl)-5-[phenyl(2-pyridyl)methyl]pyrrolo[2,3-b]pyrazin-7-yl]benzoate] | ≤ 1 | < 10000 | ≤ 1 | 
25 | Cc1noc(C)c1-c1cnc2c(-c3cnn(CC(F)(F)F)c3)nn(CC3(F)CCCCC3)c2c1 [Compound P-2089, 4-[1-[(1-fluorocyclohexyl)methyl]-3-[1-(2,2,2-trifluoroethyl)pyrazol-4-yl]pyrazolo[4,3-b]pyridin-6-yl]-3,5-dimethyl-isoxazole] | ≤ 1 | < 10000 | ≤ 1 | 
26 | COC(=O)c1ccc(-c2nn([C@@H](C)c3ccccn3)c3cc(-c4c(C)noc4C)ccc23)cc1 [Compound P-2011, methyl 4-[6-(3,5-dimethylisoxazol-4-yl)-1-[(1S)-1-(2-pyridyl)ethyl]indazol-3-yl]benzoate] | ≤ 1 | < 10000 | ≤ 1 | 
